Laboratory results published in publication PMC2767256 (Biochemical pharmacology, 2009).

Tests used:
Assay type in all cases: biochemical
SULT1A3 = SULT1A3 (Homo sapiens, UniProt P0DMM9); assay: inhibition of dopamine sulfation with […]PAPS in BeWo cytosol
SULT1A1 = SULT1A1 (Homo sapiens, UniProt P50225); assay: inhibition of 4-nitrophenol sulfation with […]PAPS in BeWo cytosol
SULT2A1 = target: T1, SULT2A1 (Homo sapiens, UniProt Q06520); assay: sulfation of [3H]DHEA
T1 sequence (Q06520 1-285): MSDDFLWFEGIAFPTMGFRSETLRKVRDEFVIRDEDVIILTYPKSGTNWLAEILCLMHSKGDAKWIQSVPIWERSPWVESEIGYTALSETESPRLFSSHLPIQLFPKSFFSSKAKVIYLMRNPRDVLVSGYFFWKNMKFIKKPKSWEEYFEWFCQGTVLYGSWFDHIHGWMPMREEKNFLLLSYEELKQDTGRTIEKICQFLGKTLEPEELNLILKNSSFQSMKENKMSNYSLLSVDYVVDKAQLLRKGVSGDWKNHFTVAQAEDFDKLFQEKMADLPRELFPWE

Sequence of SULT1A3 (P0DMM9 whole entry): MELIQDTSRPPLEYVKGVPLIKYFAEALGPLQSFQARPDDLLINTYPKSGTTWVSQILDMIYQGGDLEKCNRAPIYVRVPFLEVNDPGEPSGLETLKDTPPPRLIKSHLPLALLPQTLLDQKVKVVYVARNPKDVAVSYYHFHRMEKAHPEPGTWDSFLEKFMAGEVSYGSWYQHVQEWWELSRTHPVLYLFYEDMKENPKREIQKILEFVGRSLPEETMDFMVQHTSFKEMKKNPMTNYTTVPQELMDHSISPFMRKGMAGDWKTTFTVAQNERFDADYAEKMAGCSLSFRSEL
Sequence of SULT1A1 (P50225 whole entry): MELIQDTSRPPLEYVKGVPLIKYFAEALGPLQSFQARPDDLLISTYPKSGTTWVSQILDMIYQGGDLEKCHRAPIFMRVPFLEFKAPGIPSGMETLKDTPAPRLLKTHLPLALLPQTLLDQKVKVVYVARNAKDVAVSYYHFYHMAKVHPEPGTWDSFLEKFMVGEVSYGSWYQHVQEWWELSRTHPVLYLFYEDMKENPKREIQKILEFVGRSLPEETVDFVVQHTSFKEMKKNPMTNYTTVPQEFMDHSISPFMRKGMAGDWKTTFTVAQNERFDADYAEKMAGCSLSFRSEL

Structure (SMILES) | IC50 (SULT1A3) [µM] | IC50 (SULT1A1) [nM] | sulfation of [3H]DHEA (3 and 10 μM) by purified SULT2A1 (SULT2A1)
O=[N+]([O-])c1cc(Cl)c(O)c(Cl)c1 [DCNP, 2,6-dichloro-4-nitrophenol] | 830 | 52 | –
C[C@]12CC[C@H](O)CC1=CC[C@@H]1[C@@H]2CC[C@]2(C)C(=O)CC[C@@H]12 [DHEA, dehydroepiandrosterone] | – | – | Under the same assay conditions, purified SULT2A1 readily sulfated DHEA
